Source: patent publication US20110130447A1, “Production of hop extracts having oestrogenic and antiproliferative bioactivity” (priority 2004, published 2011)
One block for each compound: values may come before it.

What was measured:
[1] = cited from earlier work; for oestrogenic activity: Milligan et al., 1999, 2000
human oestrogen receptor = target: T1, human oestrogen receptor (Homo sapiens, UniProt P03372); experiment: Oestrogen-inducible yeast screen (Lac-Z reporter); assay type: cell-based; conditions: FIG. 4, relative to 8-prenylnaringenin
T1 construct: expressed in transfected cells; host or cells: Saccharomyces cerevisiae
Procedure: The yeasts were grown in a medium containing increasing concentrations of 17β-estradiol (positive control), 8-prenylnaringenin (8-PN), 8-isopentylnaringenin (8PN-H2) or dihydro-isoxanthohumol (IsoX-H2). Expression of the Lac-Z reporter gene was spectrophotometrically measured and quantified.

[2] = Bioavailability and stability of 8-isopentylnaringenin compared with 8-prenylnaringenin
[3] = Milligan et al., 2002; cited from earlier work
[4] = test system: oestrogen-responsive MCF-7 breast cancer cells; experiment: Bioassay of 8-prenylnaringenin-induced proliferation of MCF-7 cells and its inhibition by xanthohumol; assay type: cell-based
Procedure: A bioassay was developed to probe proliferation of oestrogen-dependent cancer cells by 8-prenylnaringenin and to determine concentrations of xanthohumol required to inhibit this 8-prenylnaringenin-induced proliferation. Thereto, oestrogen-responsive MCF-7 breast cancer cells were grown in 96-well plates in the presence of a fixed and growth-stimulatory concentration of 8-prenylnaringenin and varying concentrations of xanthohumol. For each concentration of 8-prenylnaringenin (1 nM, 10 nM, and 100 nM), the concentrations of xanthohumol were 0 μM, 0.1 μM, 1 μM, 5 μM, 10 μM and 25 μM, respectively.

[5] = test system: mouse mammary gland organ culture; conditions: Gerhauser et al., 2002; cited from earlier work
cyclooxygenase-2 = target: T2, cyclooxygenase-2 (Homo sapiens, UniProt P35354); conditions: Gerhauser et al., 2002; cited from earlier work
T2 sequence (P35354 18-604): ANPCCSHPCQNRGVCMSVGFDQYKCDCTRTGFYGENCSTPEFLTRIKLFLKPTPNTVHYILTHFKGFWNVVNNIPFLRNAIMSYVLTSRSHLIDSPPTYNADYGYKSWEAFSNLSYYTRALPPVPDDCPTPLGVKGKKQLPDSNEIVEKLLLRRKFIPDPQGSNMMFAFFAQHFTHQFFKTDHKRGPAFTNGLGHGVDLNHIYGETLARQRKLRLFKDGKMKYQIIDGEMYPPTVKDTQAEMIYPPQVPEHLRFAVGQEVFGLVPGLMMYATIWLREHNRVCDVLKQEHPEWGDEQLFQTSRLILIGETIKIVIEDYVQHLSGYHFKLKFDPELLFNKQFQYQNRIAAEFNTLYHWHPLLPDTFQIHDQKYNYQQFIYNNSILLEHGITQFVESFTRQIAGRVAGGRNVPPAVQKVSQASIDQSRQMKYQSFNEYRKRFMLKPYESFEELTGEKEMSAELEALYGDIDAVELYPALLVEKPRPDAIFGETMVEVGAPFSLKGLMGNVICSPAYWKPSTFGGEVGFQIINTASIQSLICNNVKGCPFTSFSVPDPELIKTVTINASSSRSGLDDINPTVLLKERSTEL

cyclooxygenase-1 = target: T3, cyclooxygenase-1 (Ovis aries, UniProt P05979); conditions: Gerhauser et al., 2002; cited from earlier work
T3 sequence (P05979 25-600): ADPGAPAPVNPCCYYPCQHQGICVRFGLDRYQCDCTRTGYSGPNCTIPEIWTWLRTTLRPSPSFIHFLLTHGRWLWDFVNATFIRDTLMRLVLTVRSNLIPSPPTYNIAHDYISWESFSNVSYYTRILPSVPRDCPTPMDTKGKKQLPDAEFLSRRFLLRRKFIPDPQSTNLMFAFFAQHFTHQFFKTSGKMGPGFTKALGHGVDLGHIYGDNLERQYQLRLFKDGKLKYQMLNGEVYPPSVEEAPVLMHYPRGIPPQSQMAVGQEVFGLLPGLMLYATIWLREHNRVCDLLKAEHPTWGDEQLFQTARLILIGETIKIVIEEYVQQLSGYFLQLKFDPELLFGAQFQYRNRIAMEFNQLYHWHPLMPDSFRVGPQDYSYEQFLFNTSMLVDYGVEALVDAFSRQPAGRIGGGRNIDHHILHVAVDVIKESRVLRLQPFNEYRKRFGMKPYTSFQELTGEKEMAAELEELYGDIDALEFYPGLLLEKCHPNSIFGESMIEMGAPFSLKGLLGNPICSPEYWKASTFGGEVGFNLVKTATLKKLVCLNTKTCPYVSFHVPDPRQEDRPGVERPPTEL

T1 sequence (P03372 whole entry): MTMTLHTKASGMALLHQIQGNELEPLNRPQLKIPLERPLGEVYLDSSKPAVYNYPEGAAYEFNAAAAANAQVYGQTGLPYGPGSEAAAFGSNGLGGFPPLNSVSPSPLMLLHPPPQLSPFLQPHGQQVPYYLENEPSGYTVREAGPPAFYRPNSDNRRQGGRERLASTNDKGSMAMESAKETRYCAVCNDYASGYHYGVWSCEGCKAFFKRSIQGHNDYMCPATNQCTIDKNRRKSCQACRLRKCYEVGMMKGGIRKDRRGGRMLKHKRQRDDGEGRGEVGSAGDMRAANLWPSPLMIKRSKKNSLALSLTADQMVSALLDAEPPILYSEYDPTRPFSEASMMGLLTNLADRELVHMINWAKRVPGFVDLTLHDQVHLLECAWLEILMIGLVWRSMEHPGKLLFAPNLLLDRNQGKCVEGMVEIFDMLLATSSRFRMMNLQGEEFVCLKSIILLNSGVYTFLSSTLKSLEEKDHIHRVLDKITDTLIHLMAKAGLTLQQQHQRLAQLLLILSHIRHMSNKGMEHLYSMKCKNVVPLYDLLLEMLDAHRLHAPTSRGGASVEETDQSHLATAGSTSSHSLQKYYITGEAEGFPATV

SMILES: CC(C)=CCc1c(O)c(CC=C(C)C)c2c(c1O)C(=O)C[C@@H](c1ccc(O)cc1)O2 [6,8-diprenylnaringenin]
- oestrogenic activity [1]: only weakly oestrogenic

SMILES: CC(C)=CCc1c(O)cc2c(c1O)C(=O)C[C@@H](c1ccc(O)cc1)O2 [6-prenylnaringenin]
- oestrogenic activity [1]: only weakly oestrogenic

SMILES: CC(C)=CCC/C(C)=C/Cc1c(O)cc(O)c2c1O[C@H](c1ccc(O)cc1)CC2=O [8-geranylnarin-genin]
- oestrogenic activity [1]: only weakly oestrogenic

- oestrogenic activity, times weaker than 8-prenylnaringenin (human oestrogen receptor): 3-4 times
- stability compared to 8-prenylnaringenin (less easily metabolised) [2]: better stability
SMILES: CC(C)CCc1c(O)cc(O)c2c1O[C@H](c1ccc(O)cc1)CC2=O [8-isopentylnaringenin]

SMILES: CC(C)=CCc1c(O)cc(O)c2c1O[C@H](c1ccc(O)cc1)CC2=O [8-prenylnaringenin]
- oestrogenic activity in vivo [3]: high oestrogenic activity
- oestrogenic activity [1]: activity greater than that of other established phyto-oestrogens
- proliferation of MCF-7 breast cancer cells ([4]; increasing concentrations of 8-prenylnaringenin (1 nM, 10 nM, 100 nM), FIG. 2): increased proliferation

SMILES: COc1cc(O)c(CC=C(C)C)c2c1C(=O)CC(c1ccc(O)cc1)O2 (stereo not shown) [isoxanthohumol]
- oestrogenic activity [1]: only weakly oestrogenic

SMILES: COc1cc(O)c(CC=C(C)C)c(O)c1C(=O)/C=C/c1ccc(O)cc1 [xanthohumol]
- prevention of carcinogen-induced preneoplastic lesions [5]: efficient at nanomolar concentrations
- inhibition of cyclooxygenase-2 activity (cyclooxygenase-2): inhibition
- oestrogenic activity of xanthohumol ([1]; no source stated): oestrogenically inactive
- xanthohumol to 8-prenylnaringenin weight ratio giving sufficient inhibition of proliferation ([4]; FIG. 2): at least 10
- concentrations of xanthohumol that significantly inhibit the proliferation induced by 8-prenylnaringenin ([4]; MCF-7 cells, 8-prenylnaringenin 1, 10, 100 nM): at least 5 μM
- concentrations of xanthohumol that stimulated the proliferation induced by 8-prenylnaringenin ([4]; MCF-7 cells, each concentration of 8-prenylnaringenin, ratio of xanthohumol to 8-prenylnaringenin below 10): < 1 µM
- inhibition of cyclooxygenase-1 activity (cyclooxygenase-1): inhibition
